Experimental data taken from the NIST ThermoML archive (doi:10.1016/j.jct.2016.10.033).
Numbers after ± are expanded uncertainties.

Experiment: refractive index (Na D-line) (dimensionless); xn = mol fraction of the nth substance listed
Details: 103 kPa, Liquid, Standard Abbe refractometry

C=C[Si](OC)(OC)OC [trimethoxy(vinyl)silane] + CO[Si](C)(OC)c1ccccc1
refractive index (298.15 K, x2 = 0): 1.39022 ± 0.004
refractive index (298.15 K, x2 = 0.05): 1.3954 ± 0.004
refractive index (298.15 K, x2 = 0.1): 1.40052 ± 0.004
refractive index (298.15 K, x2 = 0.1499): 1.40552 ± 0.004
refractive index (298.15 K, x2 = 0.2): 1.41045 ± 0.004
refractive index (298.15 K, x2 = 0.2501): 1.41527 ± 0.004
refractive index (298.15 K, x2 = 0.2999): 1.41998 ± 0.004
refractive index (298.15 K, x2 = 0.35): 1.42465 ± 0.004
refractive index (298.15 K, x2 = 0.4001): 1.42919 ± 0.004
refractive index (298.15 K, x2 = 0.4501): 1.43364 ± 0.004
refractive index (298.15 K, x2 = 0.5): 1.43793 ± 0.004
refractive index (298.15 K, x2 = 0.5499): 1.44232 ± 0.004
refractive index (298.15 K, x2 = 0.6): 1.44653 ± 0.004
refractive index (298.15 K, x2 = 0.6499): 1.45067 ± 0.004
refractive index (298.15 K, x2 = 0.7): 1.45459 ± 0.004
refractive index (298.15 K, x2 = 0.75): 1.45871 ± 0.004
refractive index (298.15 K, x2 = 0.8001): 1.46249 ± 0.004
refractive index (298.15 K, x2 = 0.8498): 1.46647 ± 0.004
refractive index (298.15 K, x2 = 0.8999): 1.47026 ± 0.004
refractive index (298.15 K, x2 = 0.9499): 1.47397 ± 0.004
refractive index (303.15 K, x2 = 0): 1.38775 ± 0.004
refractive index (303.15 K, x2 = 0.05): 1.39299 ± 0.004
refractive index (303.15 K, x2 = 0.1): 1.39811 ± 0.004
refractive index (303.15 K, x2 = 0.1499): 1.40314 ± 0.004
refractive index (303.15 K, x2 = 0.2): 1.40807 ± 0.004
refractive index (303.15 K, x2 = 0.2501): 1.41288 ± 0.004
refractive index (303.15 K, x2 = 0.2999): 1.41762 ± 0.004
refractive index (303.15 K, x2 = 0.35): 1.42228 ± 0.004
refractive index (303.15 K, x2 = 0.4001): 1.42683 ± 0.004
refractive index (303.15 K, x2 = 0.4501): 1.43129 ± 0.004
refractive index (303.15 K, x2 = 0.5): 1.43559 ± 0.004
refractive index (303.15 K, x2 = 0.5499): 1.43996 ± 0.004
refractive index (303.15 K, x2 = 0.6): 1.44418 ± 0.004
refractive index (303.15 K, x2 = 0.6499): 1.44831 ± 0.004
refractive index (303.15 K, x2 = 0.7): 1.45224 ± 0.004
refractive index (303.15 K, x2 = 0.75): 1.45636 ± 0.004
refractive index (303.15 K, x2 = 0.8001): 1.46015 ± 0.004
refractive index (303.15 K, x2 = 0.8498): 1.46413 ± 0.004
refractive index (303.15 K, x2 = 0.8999): 1.46791 ± 0.004
refractive index (303.15 K, x2 = 0.9499): 1.47163 ± 0.004
refractive index (308.15 K, x2 = 0): 1.38535 ± 0.004
refractive index (308.15 K, x2 = 0.05): 1.39056 ± 0.004
refractive index (308.15 K, x2 = 0.1): 1.39569 ± 0.004
refractive index (308.15 K, x2 = 0.1499): 1.40073 ± 0.004
refractive index (308.15 K, x2 = 0.2): 1.40568 ± 0.004
refractive index (308.15 K, x2 = 0.2501): 1.41047 ± 0.004
refractive index (308.15 K, x2 = 0.2999): 1.41524 ± 0.004
refractive index (308.15 K, x2 = 0.35): 1.41987 ± 0.004
refractive index (308.15 K, x2 = 0.4001): 1.42444 ± 0.004
refractive index (308.15 K, x2 = 0.4501): 1.42891 ± 0.004
refractive index (308.15 K, x2 = 0.5): 1.43321 ± 0.004
refractive index (308.15 K, x2 = 0.5499): 1.43759 ± 0.004
refractive index (308.15 K, x2 = 0.6): 1.44182 ± 0.004
refractive index (308.15 K, x2 = 0.6499): 1.44594 ± 0.004
refractive index (308.15 K, x2 = 0.7): 1.4499 ± 0.004
refractive index (308.15 K, x2 = 0.75): 1.454 ± 0.004
refractive index (308.15 K, x2 = 0.8001): 1.45778 ± 0.004
refractive index (308.15 K, x2 = 0.8498): 1.46178 ± 0.004
refractive index (308.15 K, x2 = 0.8999): 1.46557 ± 0.004
refractive index (308.15 K, x2 = 0.9499): 1.46928 ± 0.004
refractive index (313.15 K, x2 = 0): 1.3829 ± 0.004
refractive index (313.15 K, x2 = 0.05): 1.38815 ± 0.004
refractive index (313.15 K, x2 = 0.1): 1.39329 ± 0.004
refractive index (313.15 K, x2 = 0.1499): 1.3983 ± 0.004
refractive index (313.15 K, x2 = 0.2): 1.40327 ± 0.004
refractive index (313.15 K, x2 = 0.2501): 1.40809 ± 0.004
refractive index (313.15 K, x2 = 0.2999): 1.41284 ± 0.004
refractive index (313.15 K, x2 = 0.35): 1.4175 ± 0.004
refractive index (313.15 K, x2 = 0.4001): 1.42208 ± 0.004
refractive index (313.15 K, x2 = 0.4501): 1.42653 ± 0.004
refractive index (313.15 K, x2 = 0.5): 1.43084 ± 0.004
refractive index (313.15 K, x2 = 0.5499): 1.4352 ± 0.004
refractive index (313.15 K, x2 = 0.6): 1.43943 ± 0.004
refractive index (313.15 K, x2 = 0.6499): 1.44356 ± 0.004
refractive index (313.15 K, x2 = 0.7): 1.44754 ± 0.004
refractive index (313.15 K, x2 = 0.75): 1.45165 ± 0.004
refractive index (313.15 K, x2 = 0.8001): 1.45542 ± 0.004
refractive index (313.15 K, x2 = 0.8498): 1.45942 ± 0.004
refractive index (313.15 K, x2 = 0.8999): 1.46321 ± 0.004
refractive index (313.15 K, x2 = 0.9499): 1.46693 ± 0.004
refractive index (318.15 K, x2 = 0): 1.38046 ± 0.004
refractive index (318.15 K, x2 = 0.05): 1.38572 ± 0.004
refractive index (318.15 K, x2 = 0.1): 1.39082 ± 0.004
refractive index (318.15 K, x2 = 0.1499): 1.39588 ± 0.004
refractive index (318.15 K, x2 = 0.2): 1.40083 ± 0.004
refractive index (318.15 K, x2 = 0.2501): 1.40568 ± 0.004
refractive index (318.15 K, x2 = 0.2999): 1.41043 ± 0.004
refractive index (318.15 K, x2 = 0.35): 1.4151 ± 0.004
refractive index (318.15 K, x2 = 0.4001): 1.41967 ± 0.004
refractive index (318.15 K, x2 = 0.4501): 1.42413 ± 0.004
refractive index (318.15 K, x2 = 0.5): 1.42843 ± 0.004
refractive index (318.15 K, x2 = 0.5499): 1.43283 ± 0.004
refractive index (318.15 K, x2 = 0.6): 1.43706 ± 0.004
refractive index (318.15 K, x2 = 0.6499): 1.4412 ± 0.004
refractive index (318.15 K, x2 = 0.7): 1.44517 ± 0.004
refractive index (318.15 K, x2 = 0.75): 1.44929 ± 0.004
refractive index (318.15 K, x2 = 0.8001): 1.45307 ± 0.004
refractive index (318.15 K, x2 = 0.8498): 1.45707 ± 0.004
refractive index (318.15 K, x2 = 0.8999): 1.46087 ± 0.004
refractive index (318.15 K, x2 = 0.9499): 1.46458 ± 0.004
